ChEMBL document CHEMBL1156495 (J Biol Chem, 2007)
Calls of active or inactive are those of the source. The rule behind the calls is not given here. Residues, ends and D or L forms follow the SMILES beside them.

Legend:
Homo sapiens [1] = organism: Homo sapiens; assay: Inhibition of amidolytic activity of human alpha-thrombin upto 24 hrs by RP-HPLC
Homo sapiens [2] = organism: Homo sapiens; assay: Inhibition of amidolytic activity of human alpha-thrombin after 60 mins by RP-HPLC
Plasma = assay: Anticoagulant activity in human citreated plasma assessed as prolongation of fibrinogen clotting time; type: functional, cell-free
[3] = target: T1, Coagulation factor XII (Homo sapiens) (UniProt P00748); assay: Inhibition of human factor 12a at 1 uM
T1 sequence (whole entry): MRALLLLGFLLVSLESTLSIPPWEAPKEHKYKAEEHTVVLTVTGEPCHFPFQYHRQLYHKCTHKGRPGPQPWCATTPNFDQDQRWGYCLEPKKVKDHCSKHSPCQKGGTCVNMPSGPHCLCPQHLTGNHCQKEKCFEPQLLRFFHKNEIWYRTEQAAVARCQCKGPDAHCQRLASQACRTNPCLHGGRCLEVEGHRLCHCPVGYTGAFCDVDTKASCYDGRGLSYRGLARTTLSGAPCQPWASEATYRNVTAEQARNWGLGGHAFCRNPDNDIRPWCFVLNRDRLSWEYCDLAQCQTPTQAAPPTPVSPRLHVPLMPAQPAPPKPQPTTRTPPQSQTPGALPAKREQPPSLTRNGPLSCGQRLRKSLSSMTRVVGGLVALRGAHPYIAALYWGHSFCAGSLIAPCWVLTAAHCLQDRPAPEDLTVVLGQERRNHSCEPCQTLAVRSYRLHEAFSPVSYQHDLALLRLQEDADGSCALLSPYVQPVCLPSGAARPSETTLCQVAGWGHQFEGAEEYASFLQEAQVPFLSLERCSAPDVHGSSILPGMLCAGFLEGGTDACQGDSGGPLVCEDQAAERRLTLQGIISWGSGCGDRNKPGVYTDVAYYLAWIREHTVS

[4] = target: Coagulation factor XI (Homo sapiens) (UniProt P03951); assay: Inhibition of human factor 11a at 1 uM
Chain of Coagulation factor XI (Homo sapiens) (P03951 19-387 limits assumed): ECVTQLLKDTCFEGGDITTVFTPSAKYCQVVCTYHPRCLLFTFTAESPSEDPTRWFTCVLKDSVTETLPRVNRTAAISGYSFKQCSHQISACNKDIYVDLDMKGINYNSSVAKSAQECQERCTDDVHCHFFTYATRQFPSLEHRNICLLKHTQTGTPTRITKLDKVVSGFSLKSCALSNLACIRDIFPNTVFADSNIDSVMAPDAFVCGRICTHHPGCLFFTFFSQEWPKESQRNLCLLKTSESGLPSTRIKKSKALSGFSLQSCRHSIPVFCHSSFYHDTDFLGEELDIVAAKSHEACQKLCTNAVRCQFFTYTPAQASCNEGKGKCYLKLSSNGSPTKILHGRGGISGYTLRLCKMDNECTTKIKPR
Chain of Coagulation factor XI (Homo sapiens) (P03951 388-625 limits assumed): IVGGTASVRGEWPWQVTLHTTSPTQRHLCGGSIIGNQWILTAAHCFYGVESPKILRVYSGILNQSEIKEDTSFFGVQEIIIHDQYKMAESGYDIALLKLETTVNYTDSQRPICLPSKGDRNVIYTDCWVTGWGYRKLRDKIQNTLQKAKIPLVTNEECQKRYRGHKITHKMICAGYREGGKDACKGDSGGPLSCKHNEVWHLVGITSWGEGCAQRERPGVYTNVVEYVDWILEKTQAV

[5] = target: Tissue-type plasminogen activator (Homo sapiens) (UniProt P00750); assay: Inhibition of human tissue plasminogen activator at 1 uM
Chain of Tissue-type plasminogen activator (Homo sapiens) (P00750 36-562 limits assumed): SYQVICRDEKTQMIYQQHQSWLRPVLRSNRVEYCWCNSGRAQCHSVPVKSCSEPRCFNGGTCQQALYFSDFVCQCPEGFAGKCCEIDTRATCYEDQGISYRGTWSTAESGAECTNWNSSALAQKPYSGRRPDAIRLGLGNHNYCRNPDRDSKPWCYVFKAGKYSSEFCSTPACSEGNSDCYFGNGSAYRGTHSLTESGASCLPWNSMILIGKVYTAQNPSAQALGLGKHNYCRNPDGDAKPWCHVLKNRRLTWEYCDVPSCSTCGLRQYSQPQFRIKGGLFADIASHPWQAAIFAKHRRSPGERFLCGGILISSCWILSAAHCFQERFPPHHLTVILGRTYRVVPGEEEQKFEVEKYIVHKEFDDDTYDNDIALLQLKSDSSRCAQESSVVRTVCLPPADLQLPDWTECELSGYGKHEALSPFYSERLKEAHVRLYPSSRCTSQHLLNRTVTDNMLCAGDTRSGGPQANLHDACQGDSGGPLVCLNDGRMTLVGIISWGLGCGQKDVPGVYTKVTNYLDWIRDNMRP

Homo sapiens [6] = organism: Homo sapiens; assay: Inhibition of human chymotrypsin at 1 uM
[7] = target: Vitamin K-dependent protein C (Homo sapiens) (UniProt P04070); assay: Inhibition of human Activated protein C at 1 uM
Chain of Vitamin K-dependent protein C (Homo sapiens) (P04070 43-197 limits assumed): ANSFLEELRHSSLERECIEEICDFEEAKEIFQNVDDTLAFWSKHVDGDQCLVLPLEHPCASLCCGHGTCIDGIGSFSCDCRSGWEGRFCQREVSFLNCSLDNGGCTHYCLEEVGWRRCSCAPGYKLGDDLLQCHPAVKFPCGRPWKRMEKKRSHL
Chain of Vitamin K-dependent protein C (Homo sapiens) (P04070 212-461 limits assumed): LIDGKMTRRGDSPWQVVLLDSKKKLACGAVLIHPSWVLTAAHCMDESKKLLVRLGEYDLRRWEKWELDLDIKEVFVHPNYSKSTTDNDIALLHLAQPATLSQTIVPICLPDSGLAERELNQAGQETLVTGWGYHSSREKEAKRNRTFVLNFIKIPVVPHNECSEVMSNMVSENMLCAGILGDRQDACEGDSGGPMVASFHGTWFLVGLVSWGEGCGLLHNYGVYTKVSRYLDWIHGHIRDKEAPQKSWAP

[8] = target: Plasma kallikrein (Homo sapiens) (UniProt P03952); assay: Inhibition of human kallikrein at 1 uM
Chain of Plasma kallikrein (Homo sapiens) (P03952 20-390 limits assumed): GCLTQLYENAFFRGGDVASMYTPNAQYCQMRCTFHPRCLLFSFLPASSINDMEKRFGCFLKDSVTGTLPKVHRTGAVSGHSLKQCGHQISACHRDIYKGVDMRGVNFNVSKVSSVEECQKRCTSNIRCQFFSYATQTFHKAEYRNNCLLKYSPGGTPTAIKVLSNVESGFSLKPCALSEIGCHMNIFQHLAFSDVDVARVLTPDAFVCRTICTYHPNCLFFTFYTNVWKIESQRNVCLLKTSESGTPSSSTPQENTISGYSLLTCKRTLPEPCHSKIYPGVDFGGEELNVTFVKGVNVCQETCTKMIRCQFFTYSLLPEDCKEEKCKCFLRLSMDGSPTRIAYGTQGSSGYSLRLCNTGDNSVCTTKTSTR
Chain of Plasma kallikrein (Homo sapiens) (P03952 391-638 limits assumed): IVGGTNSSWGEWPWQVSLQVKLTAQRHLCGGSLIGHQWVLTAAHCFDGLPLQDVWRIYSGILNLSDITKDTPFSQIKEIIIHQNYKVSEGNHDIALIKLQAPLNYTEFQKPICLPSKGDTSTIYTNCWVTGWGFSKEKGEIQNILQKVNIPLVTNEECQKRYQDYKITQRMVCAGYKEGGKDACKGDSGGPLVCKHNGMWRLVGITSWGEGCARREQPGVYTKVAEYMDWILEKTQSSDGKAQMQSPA

[9] = target: Coagulation factor IX (Homo sapiens) (UniProt P00740); assay: Inhibition of human factor 9a at 1 uM
Chain of Coagulation factor IX (Homo sapiens) (P00740 47-191 limits assumed): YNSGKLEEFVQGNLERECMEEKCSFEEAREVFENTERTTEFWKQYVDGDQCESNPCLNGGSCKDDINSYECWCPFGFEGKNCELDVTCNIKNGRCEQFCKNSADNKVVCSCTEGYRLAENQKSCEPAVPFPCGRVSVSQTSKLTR
Chain of Coagulation factor IX (Homo sapiens) (P00740 227-461 limits assumed): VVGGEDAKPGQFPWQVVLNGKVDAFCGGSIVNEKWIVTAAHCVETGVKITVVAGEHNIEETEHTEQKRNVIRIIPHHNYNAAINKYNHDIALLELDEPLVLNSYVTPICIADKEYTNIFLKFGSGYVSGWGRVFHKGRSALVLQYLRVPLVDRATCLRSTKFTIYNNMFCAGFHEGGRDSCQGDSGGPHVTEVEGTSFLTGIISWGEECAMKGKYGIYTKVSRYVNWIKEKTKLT

Homo sapiens [10] = organism: Homo sapiens; assay: Inhibition of human alpha-thrombin at 1 uM
[11] = target: Urokinase-type plasminogen activator (Homo sapiens) (UniProt P00749); assay: Inhibition of human urokinase at 1 uM
Trypsin (Homo sapiens) [12] = target: T2, Trypsin (Homo sapiens) (UniProt P07477+P07478+P35030); assay: Inhibition of human trypsin at 100 uM; type: protein assay
[13] = target: T3, Coagulation factor VII (Homo sapiens) (UniProt P08709); assay: Inhibition of human factor 7a at 1 uM
T3 sequence (whole entry): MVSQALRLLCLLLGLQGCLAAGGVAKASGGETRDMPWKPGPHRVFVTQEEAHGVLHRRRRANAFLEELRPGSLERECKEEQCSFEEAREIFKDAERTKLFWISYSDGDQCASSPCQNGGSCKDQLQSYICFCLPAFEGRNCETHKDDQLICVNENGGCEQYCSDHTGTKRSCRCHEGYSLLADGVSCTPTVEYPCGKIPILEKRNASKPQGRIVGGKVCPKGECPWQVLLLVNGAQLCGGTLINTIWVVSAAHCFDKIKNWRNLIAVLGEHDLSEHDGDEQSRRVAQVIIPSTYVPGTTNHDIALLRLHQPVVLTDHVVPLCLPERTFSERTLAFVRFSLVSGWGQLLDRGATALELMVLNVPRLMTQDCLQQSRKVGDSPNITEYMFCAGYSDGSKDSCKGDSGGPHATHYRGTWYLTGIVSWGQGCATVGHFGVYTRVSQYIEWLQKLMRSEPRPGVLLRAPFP

[14] = target: Plasminogen (Homo sapiens) (UniProt P00747); assay: Inhibition of human plasmin at 1 uM
Chain of Plasminogen (Homo sapiens) (P00747 97-580 limits assumed): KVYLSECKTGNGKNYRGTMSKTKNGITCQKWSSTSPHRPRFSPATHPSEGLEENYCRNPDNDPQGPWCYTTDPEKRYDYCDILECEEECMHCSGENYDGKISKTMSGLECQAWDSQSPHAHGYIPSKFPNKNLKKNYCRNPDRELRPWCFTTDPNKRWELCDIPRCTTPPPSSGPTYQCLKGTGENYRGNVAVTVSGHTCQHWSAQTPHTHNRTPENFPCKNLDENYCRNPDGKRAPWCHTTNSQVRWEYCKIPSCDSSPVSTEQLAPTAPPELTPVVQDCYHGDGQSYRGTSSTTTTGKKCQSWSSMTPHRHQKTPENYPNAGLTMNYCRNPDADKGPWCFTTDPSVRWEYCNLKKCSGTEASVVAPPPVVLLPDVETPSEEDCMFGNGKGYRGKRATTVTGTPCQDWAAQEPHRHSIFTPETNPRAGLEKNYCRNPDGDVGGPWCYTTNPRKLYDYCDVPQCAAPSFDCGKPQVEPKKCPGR
Chain of Plasminogen (Homo sapiens) (P00747 581-810 limits assumed): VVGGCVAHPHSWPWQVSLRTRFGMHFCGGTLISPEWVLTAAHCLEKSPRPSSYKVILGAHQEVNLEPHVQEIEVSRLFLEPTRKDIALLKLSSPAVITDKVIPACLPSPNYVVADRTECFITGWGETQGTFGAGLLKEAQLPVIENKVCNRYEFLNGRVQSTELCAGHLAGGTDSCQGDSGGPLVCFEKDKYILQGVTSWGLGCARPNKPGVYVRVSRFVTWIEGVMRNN

Trypsin (Homo sapiens) [15] = target: T2, Trypsin (Homo sapiens); assay: Inhibition of human trypsin at 1 uM; type: protein assay
[16] = target: Coagulation factor X (Homo sapiens) (UniProt P00742); assay: Inhibition of human factor 10a at 1 uM
Chain of Coagulation factor X (Homo sapiens) (P00742 41-179 limits assumed): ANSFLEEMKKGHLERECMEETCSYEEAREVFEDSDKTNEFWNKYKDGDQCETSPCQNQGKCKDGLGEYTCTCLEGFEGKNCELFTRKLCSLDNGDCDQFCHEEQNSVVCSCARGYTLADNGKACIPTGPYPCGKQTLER
Chain of Coagulation factor X (Homo sapiens) (P00742 235-488 limits assumed): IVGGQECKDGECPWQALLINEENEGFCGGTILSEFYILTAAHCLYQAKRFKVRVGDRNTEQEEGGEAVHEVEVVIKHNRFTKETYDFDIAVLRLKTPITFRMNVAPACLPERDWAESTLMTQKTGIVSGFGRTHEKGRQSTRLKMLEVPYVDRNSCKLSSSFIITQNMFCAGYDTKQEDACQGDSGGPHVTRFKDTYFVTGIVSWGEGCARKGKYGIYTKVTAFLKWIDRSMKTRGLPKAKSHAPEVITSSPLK

[17] = target: Coagulation factor XI (Homo sapiens) (UniProt P03951); assay: Inhibition of human factor 11a at 100 uM
[18] = target: Plasminogen (Homo sapiens) (UniProt P00747); assay: Inhibition of human plasmin at 100 uM

CC[C@H](C)[C@H](NC(=O)[C@H](C)NC(=O)[C@H](CCC(=O)O)NC(=O)[C@H](Cc1ccccc1)NC(=O)[C@H](CC(=O)O)NC(=O)[C@H](Cc1ccccc1)NC(=O)[C@@H]1CCCN1C(=O)[C@@H]1CCCN1C(=O)[C@H](C)NC(=O)[C@@H](NC(=O)[C@H](CCCCN)NC(=O)[C@H](Cc1cnc[nH]1)NC(=O)[C@H](CCSC)NC(=O)[C@H](CCCCN)NC(=O)[C@@H]1CCCN1C(=O)[C@@H](N)CCC(=O)O)[C@@H](C)O)C(=O)N1CCC[C@H]1C(=O)N[C@@H](CCC(=O)O)C(=O)N[C@@H](CCC(=O)O)C(=O)N[C@@H](Cc1ccc(O)cc1)C(=O)N[C@@H](CC(C)C)C(=O)N[C@@H](CC(=O)O)C(=O)N[C@@H](CC(=O)O)C(=O)N[C@@H](CCC(=O)O)C(=O)N[C@@H](CO)C(=O)O
Activity (Homo sapiens [1]): inactive | Activity (Homo sapiens [2]): Active | Activity (Plasma): Dose-dependent effect

CC[C@H](C)[C@H](NC(=O)[C@H](C)NC(=O)[C@H](CCC(=O)O)NC(=O)[C@H](Cc1ccccc1)NC(=O)[C@H](CC(=O)O)NC(=O)[C@H](Cc1ccccc1)NC(=O)[C@@H]1CCCN1C(=O)[C@@H]1CCCN1C(=O)[C@H](C)N)C(=O)N1CCC[C@H]1C(=O)N[C@@H](CCC(=O)O)C(=O)N[C@@H](CCC(=O)O)C(=O)N[C@@H](Cc1ccc(O)cc1)C(=O)N[C@@H](CC(C)C)C(=O)N[C@@H](CC(=O)O)C(=O)N[C@@H](CC(=O)O)C(=O)N[C@@H](CCC(=O)O)C(=O)N[C@@H](CO)C(=O)O (H-APPFDFEAIPEEYLDDES-OH)
Activity (Plasma): Dose-dependent effect

CC[C@H](C)[C@H](NC(=O)[C@H](C)NC(=O)[C@H](CCC(=O)O)NC(=O)[C@H](Cc1ccccc1)NC(=O)[C@H](CC(=O)O)NC(=O)[C@H](Cc1ccccc1)NC(=O)[C@@H]1CCCN1C(=O)[C@@H]1CCCN1C(=O)[C@H](C)NC(=O)[C@@H](NC(=O)[C@H](CCCCN)NC(=O)[C@H](Cc1cnc[nH]1)NC(=O)[C@H](CCSC)NC(=O)[C@H](CCCCN)NC(=O)[C@@H]1CCCN1C(=O)[C@H](CCC(=O)O)NC(=O)[C@H](C)NC(=O)[C@@H](NC(=O)[C@H](CC(=O)O)NC(=O)CNC(=O)[C@H](CCC(N)=O)NC(=O)[C@H](CC(=O)O)NC(=O)[C@@H](N)CO)C(C)C)[C@@H](C)O)C(=O)N1CCC[C@H]1C(=O)N[C@@H](CCC(=O)O)C(=O)N[C@@H](CCC(=O)O)C(=O)N[C@@H](Cc1ccc(O)cc1)C(=O)N[C@@H](CC(C)C)C(=O)N[C@@H](CC(=O)O)C(=O)N[C@@H](CC(=O)O)C(=O)N[C@@H](CCC(=O)O)C(=O)N[C@@H](CO)C(=O)O
inhibition [3]: < 5% | inhibition [4]: < 5% | inhibition [5]: < 5% | Activity (Homo sapiens [1]): inactive | inhibition (Homo sapiens [6]): < 5% | Activity (Homo sapiens [2]): Active | inhibition [7]: < 5% | inhibition [8]: < 5% | inhibition [9]: < 5% | Activity (Homo sapiens [10]): Active | inhibition [11]: < 5% | inhibition (Trypsin (Homo sapiens) [12]): 20% | inhibition [13]: < 5% | inhibition [14]: < 5% | Activity (Plasma): Dose-dependent effect | inhibition (Trypsin (Homo sapiens) [15]): < 5% | inhibition [16]: < 5% | inhibition [17]: 20% | inhibition [18]: 20%
